Measured values reported in US7872047B2, “Esters of long-chain alcohols and preparation thereof” (Eastman Chemical Company, priority 2008, dated 2011).

Assay: Oxidative Stability Index (OSI) accelerated oxidation test in simple skin lipid model
Details: for onset of lipid oxidation over the untreated control (antioxidant effect): 1% idebenone, 1% or 2% idebenone linoleate in SLMM, p<0.01; for Avg. OSI (stdev) Hours at 80° C.: air bubbled, induction period, triplicate; for Calculated OSI Hours at 35° C.: estimated for 35° C. (skin surface temperature) with instrument software
Description: Oxidation of skin lipids can contribute to an aged appearance and other undesirable effects on skin condition. A simple skin lipid model (based on fatty acids found in skin) can be used to evaluate and predict the topical effectiveness of different compounds to inhibit skin lipid oxidation and improve the condition of skin (Narayanan, S.: Hunerbein, A.: Getie, M.; Jackel, A.; Neubert, R. H. Scavenging properties of metronidazole on free oxygen radicals in a skin lipid model system. J Pharm Pharmacol. 2007 August;59(8):1125-30).
Lipid oxidation can be measured by a number of analytical methods. An accelerated oxidation test such as the Oxidative Stability Index (OSI) is accepted as a method for determining both oxidative stability of lipids as well as antioxidant effectiveness (Bartee, S. D.; Kim, H. J.; Min, D. B. Effects of antioxidants on the oxidative stability of oils containing arachidonic, docosapentaaenoic and docosahexaenoic acids. J Amer Oil Chem Soc 2007 84: 363-68.; Official methods and recommended practices of the AOCS, 5th Edition, AOCS 1998).
In this example, the OSI method was used to assess the antioxidant activity of idebenone esters by measuring their ability to inhibit lipid oxidation in a mixture of fatty acids that are present in skin lipids. The composition of the simple skin lipid model tested is 74% linoleic acid; 21% oleic acid; 4% linolenic acid. The simple skin lipid model includes a large proportion of polyunsaturated and unsaturated fatty acids, which are prone to oxidation.
The untreated sample was composed of the simple skin lipid model (fatty acid mixture). The treated samples were prepared by dissolving the test materials in the simple skin lipid model at 1 or 2 wt % at room temperature. The treated and untreated lipid matrices were oxidized by heating the test solutions to 80° C. and bubbling air through the samples. The OSI (induction period in hours) was determined using an Oxidative Stability Instrument (Omnion, Inc. Rockville Md.) and the method of Bartee et al., 2007. Untreated and treated samples were tested in triplicate, and the average and standard deviation are included in Table 1. The OSI (induction period in hours) was also estimated for oxidation at 35° C. (simulating skin surface temperature) using the software supplied with the instrument.

Structure (SMILES) | onset of lipid oxidation over the untreated control (antioxidant effect) | Avg. OSI (stdev) Hours at 80° C. (1 wt % test material in SLMM) | Calculated OSI Hours at 35° C. (1 wt % test material in SLMM) [h] | Avg. OSI (stdev) Hours at 80° C. (2 wt % test material in SLMM) | Calculated OSI Hours at 35° C. (2 wt % test material in SLMM) [h]
CCCCC/C=C\C/C=C\CCCCCCCC(=O)OCCCCCCCCCCC1=C(C)C(=O)C(OC)=C(OC)C1=O [idebenone linoleate, Idebenone Linoleate] | significantly delayed the onset of lipid oxidation | 2.50 (0.54) Hours | 56.2 | 3.22 (0.67) Hours | 72.4
COC1=C(OC)C(=O)C(CCCCCCCCCCO)=C(C)C1=O [idebenone, Idebenone, reference compound] | significantly delayed the onset of lipid oxidation | 2.77 (0.14) Hours | 62.3 |  | 
